Laboratory results from patent US20130059879A1, “Small Molecule Inhibitors of PFKFB3 and Glycolytic Flux and Their Methods of Use as Anti-Cancer Therapeutics” (UNIVERSITY OF LOUISVILLE RESEARCH FOUNDATION, INC., priority 2010, published 2013).

Assays:
U937 = experiment: Cell proliferation, MTT assay, 72 hours; type: cell-based; details: Homo sapiens, U-937
Procedure: (§1) The ability of the compounds described herein to kill or inhibit the proliferation of cancer cells was measured using either the MTT assay, or the Alamar Blue assay, or the Cell Titer Glow® assay using 48 or 72 hours exposure. […] The procedures are briefly described below. Cells of the desired tumor cell line were plated at 2×10^5 cells/ml in 96 well plates. Twice the indicated concentrations of the compounds of the invention were added to cells the following day in an equal volume of media. 72 hours later, cells were lysed and subjected to ATP determination using the CellTiter Glo-Luminescent Cell Viability Assay kit (Promega, Madison, Wis.). Experiments were done in triplicate. When using the MTT assay or the Alamar blue assay, the experimental conditions are essentially similar; at the end of the incubation period, 20 microliters of the MTT solution is added per well and the samples are incubated for an additional four hours, rinsed, and the absorbance at 570 nm measured. […] Table 2 lists the IC50 values for the compounds of the invention in several cell lines including Jurkat, Calu-6, NCI-H82, U937, HCT-116, and MDA-MB-231 cancer cell lines.

PC3 = experiment: Cell proliferation, MTT assay, 72 hours; type: cell-based; details: Homo sapiens, PC-3
Procedure: as §1

Calu-6 = experiment: Cell proliferation, MTT assay, 72 hours; type: cell-based; details: Homo sapiens, Calu-6, MTT assay
Procedure: as §1

HCT-116 = experiment: Cell proliferation, MTT assay, 72 hours; type: cell-based; details: Homo sapiens, HCT-116, MTT assay
Procedure: as §1

DU145 = experiment: Cell proliferation, MTT assay, 72 hours; type: cell-based; details: Homo sapiens, DU-145
Procedure: as §1

Jurkat = experiment: Cell proliferation, MTT assay, 72 hours; type: cell-based; details: Homo sapiens
Procedure: as §1

Hela = experiment: Cell proliferation, MTT assay, 72 hours; type: cell-based; details: Homo sapiens
Procedure: as §1

K562 = experiment: Cell proliferation, MTT assay, 72 hours; type: cell-based; details: Homo sapiens
Procedure: as §1

Hep G2 = experiment: Cell proliferation, MTT assay, 72 hours; type: cell-based; details: Homo sapiens, HepG2
Procedure: as §1

H209 = experiment: Cell proliferation, MTT assay, 72 hours; type: cell-based; details: Homo sapiens, NCI-H209
Procedure: as §1

HT-29 = experiment: Cell proliferation, MTT assay, 72 hours; type: cell-based; details: Homo sapiens, HT-29, MTT assay
Procedure: as §1

MDA-MB-231 = experiment: Cell proliferation, MTT assay, 72 hours; type: cell-based; details: Homo sapiens, MDA-MB-231, MTT assay
Procedure: as §1

NCI-H82 = experiment: Cell proliferation, MTT assay, 72 hours; type: cell-based; details: Homo sapiens
Procedure: as §1

[1] = Cell permeability in Caco2 monolayers; type: in vitro ADME; details: human, Caco-2, Caco2 cells, pH 7.4
Excerpt: (§2) The determination of the permeability in Caco2 or MDR1-MDCK cells is widely used when screening compounds to assess cell permeability, intestinal drug transport and predict absorption rates and to ascertain if a compound might be a Pgp substrate and have cross the blood brain barrier. […] Comparison of the apical to basal (A-B) and basal to apical (B-A) values show if a compound is actively effluxed out the cells and if it is a Pgp substrate. […] Briefly, cell permeability and transport mechanisms in Caco-2 and MDR1-MDCK monolayers experiments were performed in triplicate in the apical-to-basolateral and basolateral-to-apical direction using Transwell wells containing either Caco-2 or MDR1-MDCK monolayers. A modified Hanks buffer pH 7.4 was used in both reservoir and receiver wells with the addition of 1% BSA in the receiver side. Confluent monolayers were used and their integrity was verified using reference compounds (Atenolol as a low permeability reference compound and Propanolol as a high permeability reference compound). A sample in the basolateral and apical sides was taken after 2 hours and the concentration measured by LC/MS-MS.

Pharmacokinetics in rats = type: in vivo; details: male Sprague Dawley rats
Procedure: (§3) The pharmacokinetic parameters for several compounds were determined in mice following IV (intravenous), IP (intraperitoneal), or PO (per os) administration, as well as in rats and dogs. A typical study design includes six Balbc male mice 7 to 8 weeks old. For instance, a dose of 10 mg/kg was administered IV using a 5% DMS0/90% Captisol (20% in water) solution or other pharmaceutically acceptable parenteral and oral formulations. Blood samples were collected at different intervals. Plasma samples were extracted and analyzed using an LC-MS/MS method. Similar protocols were used for the rats (Sprague Dawley rats) or dogs (beagles) PK studies; in the case of dogs PK studies, the number of animals per group was three.
(§4) PFK-065 was dosed at 10 mg/kg in male Balbc mice; PFK-095 was dosed at 10 mg/kg in male Sprague Dawley rats; and PFK-112 dosed at 6 mg/kg in male beagle dogs.

[2] = Cell permeability in MDR1-MDCK monolayers; type: in vitro ADME; details: dog, MDR1-MDCK cells, pH 7.4
Excerpt: as §2

Pharmacokinetics in dogs = type: in vivo; details: male beagle dogs
Procedure: as §3, §4

O=C(c1ccncc1)c1cc2c(ccc3ccccc32)[nH]1 [ACT-PFK-095, (3H-Benzo[e]indol-2-yl)-pyridin-4-yl-methanone]
IC50 (U937): 50 nM | IC50 (PC3): 950 nM | IC50 (Calu-6): 140 nM | IC50 (HCT-116): 510 nM | IC50 (DU145): 940 nM | IC50 (Jurkat): 4650 nM | IC50 (Hela): 9100 nM | IC50 (K562): 210 nM | IC50 (Hep G2): 5500 nM | IC50 (H209): 190 nM | IC50 (HT-29): 450 nM | IC50 (MDA-MB-231): 24900 nM | IC50 (NCI-H82): 180 nM | Papp A→B at 2 h ([1]; apical to basal): 16.2 ×10⁻⁶ cm/s | Papp B→A at 2 h ([1]; basal to apical): 8.9 ×10⁻⁶ cm/s | Cmax (Pharmacokinetics in rats; IV 10 mg/kg): 16932 ng/mL | T1/2b (Pharmacokinetics in rats; IV 10 mg/kg): 5.5 h | Vd (Pharmacokinetics in rats; IV 10 mg/kg): 2.5 L/kg | % F (from PO group) (Pharmacokinetics in rats; oral bioavailability, PO 10 mg/kg): 38% | AUC(0-inf) (Pharmacokinetics in rats; rat, plasma, IV 10 mg/kg): 1290 ng·h/mL

Nc1ccc(C(=O)c2cc3c(ccc4ccccc43)[nH]2)cc1 [ACT-PFK-112, (4-Amino-phenyl)-(3H-benzo[e]indol-2-yl)-methanone]
Papp A→B at 2 h ([2]; apical to basal): 7.8 ×10⁻⁶ cm/s | Papp B→A at 2 h ([2]; basal to apical): 17.3 ×10⁻⁶ cm/s | T1/2b (Pharmacokinetics in dogs; IV 6 mg/kg): 5.8 h | AUC(0-inf) (Pharmacokinetics in dogs; dog, plasma, IV 6 mg/kg): 5070 ng·h/mL | Cmax (Pharmacokinetics in dogs; dog, plasma, IV 6 mg/kg): 5060 ng/mL | Vd (Pharmacokinetics in dogs; dog, plasma, IV 6 mg/kg): 1.8 L/kg | % F (from PO group) (Pharmacokinetics in dogs; oral bioavailability, PO 24 mg/kg vs IV 6 mg/kg): 95%
